System: KRAS PDC multicell spheroid viability
Test: Anticancer human tumor 521955-158-R6-J3-PDC patient-derived pancreatic carcinoma cell line growth inhibition [KRAS2]
Conditions: for viability, T/C: stronger effect = lower value
Method in brief: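 KRAS-mutant tumor cells were grown as spheroids with HUVEC endothelial cells and human MSCs as stroma. Targeted agents were tested alone and with KRAS pathway inhibitors. Doses started at or near clinical Cmax, or 10 microM, descending half-log.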

[1] = curve of first compound, second compound 0.1 µM
[2] = curve of first compound, second compound 0.316 µM
[3] = curve of first compound, second compound 1 µM
[4] = curve of first compound, second compound 3.16 µM
[5] = curve of first compound, second compound 10 µM
[6] = second compound 0.1 µM, first compound 0.0316 µM
[7] = second compound 0.1 µM, first compound 0.1 µM
[8] = second compound 0.1 µM, first compound 0.316 µM
[9] = second compound 0.1 µM, first compound 1 µM
[10] = second compound 0.1 µM, first compound 3.16 µM
[11] = second compound 0.1 µM, first compound 10 µM
[12] = second compound 0.316 µM, first compound 0.0316 µM
[13] = second compound 0.316 µM, first compound 0.1 µM
[14] = second compound 0.316 µM, first compound 0.316 µM
[15] = second compound 0.316 µM, first compound 1 µM
[16] = second compound 0.316 µM, first compound 3.16 µM
[17] = second compound 0.316 µM, first compound 10 µM
[18] = second compound 1 µM, first compound 0.0316 µM
[19] = second compound 1 µM, first compound 0.1 µM
[20] = second compound 1 µM, first compound 0.316 µM
[21] = second compound 1 µM, first compound 1 µM
[22] = second compound 1 µM, first compound 3.16 µM
[23] = second compound 1 µM, first compound 10 µM
[24] = second compound 3.16 µM, first compound 0.0316 µM
[25] = second compound 3.16 µM, first compound 0.1 µM
[26] = second compound 3.16 µM, first compound 0.316 µM
[27] = second compound 3.16 µM, first compound 1 µM
[28] = second compound 3.16 µM, first compound 3.16 µM
[29] = second compound 3.16 µM, first compound 10 µM
[30] = second compound 10 µM, first compound 0.0316 µM
[31] = second compound 10 µM, first compound 0.1 µM
[32] = second compound 10 µM, first compound 0.316 µM
[33] = second compound 10 µM, first compound 1 µM
[34] = second compound 10 µM, first compound 3.16 µM
[35] = second compound 10 µM, first compound 10 µM
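Also: drug exposure lasted seven days.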
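For viability, T/C in this document: 100% = DMSO vehicle wells and lower means fewer viable cells.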

With `CNCc1ccccc1-c1csc(C(C)Nc2nc(C)nc3cc(OC)c(OC)cc23)c1` (stereo not given) as the compound, how does the viability, T/C (compound 0.1 µM) read?
The viability, T/C was 84.1% [middle of 16 runs].

And the viability, T/C (compound 0.316 µM)?
The viability, T/C was 79% [middle of 16 runs].

What about the viability, T/C (compound 10 µM) of the same compound?
Its viability, T/C is 0.23% [middle of 15 runs].

What about the IC50 (compound alone, run of 08/26/2021) of the same compound?
The IC50 was 1.48 µM [middle of 5 runs].

And the IC50 (compound alone, run of 09/02/2021)?
Its IC50 is 1.4 µM [middle of 5 runs].

With `O=C(c1cc(Cc2n[nH]c(=O)c3ccccc23)ccc1F)N1CCN(C(=O)C2CC2)CC1` + C=CC(=O)N1CCN(c2nc(=O)n(-c3c(C)ccnc3C(C)C)c3nc(-c4c(O)cccc4F)c(F)cc23)C(C)C1 as the compound, how does the IC50 [1] read?
The IC50 was greater than 10 µM.

And the IC50 [2]?
Its IC50 is greater than 10 µM.

And the IC50 [3]?
Its IC50 is greater than 10 µM.

What about the IC50 [4] of the same compound?
The IC50 was greater than 10 µM.

And the IC50 [5]?
Its IC50 is greater than 10 µM.

And the viability, T/C [6]?
Its viability, T/C is 110%.

What about the viability, T/C [7] of the same compound?
Its viability, T/C is 103%.

What about the viability, T/C [8] of the same compound?
The viability, T/C was 113%.

What about the viability, T/C [9] of the same compound?
Its viability, T/C is 96.1%.

What about the viability, T/C [10] of the same compound?
Its viability, T/C is 101%.

What about the viability, T/C [11] of the same compound?
Its viability, T/C is 96.2%.

And the viability, T/C [12]?
Its viability, T/C is 118%.

What about the viability, T/C [13] of the same compound?
Its viability, T/C is 118%.

What about the viability, T/C [14] of the same compound?
Its viability, T/C is 106%.

What about the viability, T/C [15] of the same compound?
Its viability, T/C is 104%.

And the viability, T/C [16]?
Its viability, T/C is 93.8%.

And the viability, T/C [17]?
Its viability, T/C is 111%.

And the viability, T/C [18]?
The viability, T/C was 118%.

What about the viability, T/C [19] of the same compound?
Its viability, T/C is 114%.

What about the viability, T/C [20] of the same compound?
Its viability, T/C is 110%.

And the viability, T/C [21]?
Its viability, T/C is 99.3%.

And the viability, T/C [22]?
The viability, T/C was 99.7%.

And the viability, T/C [23]?
Its viability, T/C is 111%.

What about the viability, T/C [24] of the same compound?
The viability, T/C was 103%.

And the viability, T/C [25]?
The viability, T/C was 105%.

What about the viability, T/C [26] of the same compound?
Its viability, T/C is 95.4%.

What about the viability, T/C [27] of the same compound?
Its viability, T/C is 104%.

What about the viability, T/C [28] of the same compound?
The viability, T/C was 98.2%.

And the viability, T/C [29]?
The viability, T/C was 81.5%.

What about the viability, T/C [30] of the same compound?
The viability, T/C was 84.4%.

What about the viability, T/C [31] of the same compound?
Its viability, T/C is 84.7%.

What about the viability, T/C [32] of the same compound?
Its viability, T/C is 87.1%.

And the viability, T/C [33]?
Its viability, T/C is 84%.

What about the viability, T/C [34] of the same compound?
The viability, T/C was 84.2%.

What about the viability, T/C [35] of the same compound?
Its viability, T/C is 83.9%.

Which IC50 [1] does the source give for `CC(C)n1nc(-c2ccc3oc(N)nc3c2)c2c(N)ncnc21` + CC1OCC2(CCN(c3cnc(Sc4ccnc(N)c4Cl)c(N)n3)CC2)C1N here?
Its IC50 is greater than 0.1 µM.

What about the IC50 [2] of the same compound?
The IC50 was 0.0563 µM.

And the IC50 [3]?
The IC50 was 0.0557 µM.

And the IC50 [4]?
The IC50 was 0.0335 µM.

And the IC50 [5]?
The IC50 was 0.0235 µM.

And the viability, T/C (second compound 0.1 µM, first compound 0.000316 µM)?
Its viability, T/C is 89%.

What about the viability, T/C (second compound 0.1 µM, first compound 0.001 µM) of the same compound?
The viability, T/C was 85.8%.

And the viability, T/C (second compound 0.1 µM, first compound 0.00316 µM)?
The viability, T/C was 74%.

What about the viability, T/C (second compound 0.1 µM, first compound 0.01 µM) of the same compound?
The viability, T/C was 65.3%.

What about the viability, T/C [6] of the same compound?
Its viability, T/C is 57.4%.

What about the viability, T/C [7] of the same compound?
Its viability, T/C is 50%.

And the viability, T/C (second compound 0.316 µM, first compound 0.000316 µM)?
The viability, T/C was 92.3%.

And the viability, T/C (second compound 0.316 µM, first compound 0.001 µM)?
Its viability, T/C is 84.2%.

What about the viability, T/C (second compound 0.316 µM, first compound 0.00316 µM) of the same compound?
The viability, T/C was 71.7%.

And the viability, T/C (second compound 0.316 µM, first compound 0.01 µM)?
The viability, T/C was 65.6%.

And the viability, T/C [12]?
The viability, T/C was 56.2%.

What about the viability, T/C [13] of the same compound?
The viability, T/C was 44.3%.

What about the viability, T/C (second compound 1 µM, first compound 0.000316 µM) of the same compound?
Its viability, T/C is 88.3%.

And the viability, T/C (second compound 1 µM, first compound 0.001 µM)?
The viability, T/C was 86.5%.

What about the viability, T/C (second compound 1 µM, first compound 0.00316 µM) of the same compound?
The viability, T/C was 74.2%.

What about the viability, T/C (second compound 1 µM, first compound 0.01 µM) of the same compound?
Its viability, T/C is 66.8%.

What about the viability, T/C [18] of the same compound?
The viability, T/C was 56%.

What about the viability, T/C [19] of the same compound?
Its viability, T/C is 44.1%.

And the viability, T/C (second compound 3.16 µM, first compound 0.000316 µM)?
Its viability, T/C is 112%.

What about the viability, T/C (second compound 3.16 µM, first compound 0.001 µM) of the same compound?
Its viability, T/C is 113%.

What about the viability, T/C (second compound 3.16 µM, first compound 0.00316 µM) of the same compound?
The viability, T/C was 88.8%.

What about the viability, T/C (second compound 3.16 µM, first compound 0.01 µM) of the same compound?
Its viability, T/C is 70.7%.

What about the viability, T/C [24] of the same compound?
The viability, T/C was 51.3%.

What about the viability, T/C [25] of the same compound?
The viability, T/C was 40.2%.

And the viability, T/C (second compound 10 µM, first compound 0.000316 µM)?
The viability, T/C was 99.1%.

And the viability, T/C (second compound 10 µM, first compound 0.001 µM)?
The viability, T/C was 101%.

And the viability, T/C (second compound 10 µM, first compound 0.00316 µM)?
Its viability, T/C is 89.7%.

And the viability, T/C (second compound 10 µM, first compound 0.01 µM)?
The viability, T/C was 63.1%.

What about the viability, T/C [30] of the same compound?
Its viability, T/C is 47.3%.

And the viability, T/C [31]?
The viability, T/C was 38.3%.

Which IC50 [1] does the source give for `COc1cc(Nc2ncc3c(n2)-c2ccc(Cl)cc2C(c2c(F)cccc2OC)=NC3)ccc1C(=O)O` + C=CC(=O)N1CCN(c2nc(=O)n(-c3c(C)ccnc3C(C)C)c3nc(-c4c(O)cccc4F)c(F)cc23)C(C)C1 here?
The IC50 was greater than 10 µM.

What about the IC50 [2] of the same compound?
The IC50 was greater than 10 µM.

And the IC50 [3]?
The IC50 was greater than 10 µM.

And the IC50 [4]?
The IC50 was greater than 10 µM.

And the IC50 [5]?
The IC50 was greater than 10 µM.

What about the viability, T/C [6] of the same compound?
The viability, T/C was 109%.

What about the viability, T/C [7] of the same compound?
The viability, T/C was 103%.

What about the viability, T/C [8] of the same compound?
Its viability, T/C is 102%.

What about the viability, T/C [9] of the same compound?
Its viability, T/C is 92.6%.

And the viability, T/C [10]?
Its viability, T/C is 89.1%.

And the viability, T/C [11]?
Its viability, T/C is 89.8%.

And the viability, T/C [12]?
The viability, T/C was 100%.

And the viability, T/C [13]?
Its viability, T/C is 108%.

And the viability, T/C [14]?
The viability, T/C was 99.4%.

What about the viability, T/C [15] of the same compound?
Its viability, T/C is 79.6%.

What about the viability, T/C [16] of the same compound?
The viability, T/C was 82.9%.

And the viability, T/C [17]?
The viability, T/C was 82.1%.

What about the viability, T/C [18] of the same compound?
Its viability, T/C is 93.2%.

And the viability, T/C [19]?
Its viability, T/C is 103%.

What about the viability, T/C [20] of the same compound?
Its viability, T/C is 94.7%.

What about the viability, T/C [21] of the same compound?
Its viability, T/C is 95.6%.

And the viability, T/C [22]?
The viability, T/C was 86.3%.

What about the viability, T/C [23] of the same compound?
The viability, T/C was 80.5%.

And the viability, T/C [24]?
Its viability, T/C is 91.3%.

And the viability, T/C [25]?
Its viability, T/C is 89.9%.

What about the viability, T/C [26] of the same compound?
Its viability, T/C is 77.4%.

What about the viability, T/C [27] of the same compound?
The viability, T/C was 78.6%.

What about the viability, T/C [28] of the same compound?
Its viability, T/C is 84.6%.

And the viability, T/C [29]?
Its viability, T/C is 79%.

What about the viability, T/C [30] of the same compound?
The viability, T/C was 71.5%.

What about the viability, T/C [31] of the same compound?
Its viability, T/C is 77.9%.

And the viability, T/C [32]?
The viability, T/C was 70.6%.

And the viability, T/C [33]?
The viability, T/C was 62.4%.

What about the viability, T/C [34] of the same compound?
The viability, T/C was 54.2%.

What about the viability, T/C [35] of the same compound?
The viability, T/C was 58.3%.
